Data taken from patent US20240374535A1, “COMPOSITIONS AND METHODS FOR TREATING BIOFILM DISORDERS AND INFECTIONS” (AHV International B.V., priority 2021, published 2024).

Columns and labels:
[1] = tested on: Pseudomonas aeruginosa ATCC 27853 biofilm; experiment: MBIC assay (biofilm inhibition, crystal violet); format: cell-based, P. aeruginosa; settings: 48 h incubation, absorbance 540 nm
Procedure: (§1) The exact weighed amount was noted and the volume of solvent to reach a 80 mM dilution calculated. Half of the volume was added first, by adding Tween 80. In a second step, the other half of the volume DMSO was added and the closed tube inverted 5-10 times and then vortexed very thoroughly for at least 30 seconds. If after this procedure unsolved material was still visible, the tube was placed in a shaker at 37° C. at 150 rpm for at least 30 minutes. […] For the MBEC assay (method 1.3) the solution needs to be diluted to a final concentration of 2 mM in 0.9% saline solution and then further diluted to 1 mM, 0.5 mM, 0.25 mM and 0.125 mM in saline. Those dilutions were added as treatment to the 96 well plates with the grown biofilm (see method 3).
(§2) Frozen aliquots of Staphylococcus epidermis ATCC 35984 and Pseudomonas aeruginosa ATCC 27853 were used to inoculate a tryptic soy agar (TSA) plate and were incubated overnight at 37° C. After incubation 3-5 well-isolated colonies with the same morphology were selected from the TSA plate and resuspended in 2 mL 0.9% saline solution with 3-6 glass beads and vortexed. The optical density of the bacterial suspension was measured at 600 nm (OD600) with a spectrophotometer (Evolution™ 201/220 UV-Visible Spectrophotometer, Thermo Fisher Scientific) and diluted to an OD600 of 0.2. The MBIC assay was performed in a 96-microtiter plate. 50 μL of TSB was added into columns 2-11, and 100 μL to column 12 for sterility control. 100 μL of the 8 mM test compound solution (method 1) was added to column 1. A two-fold dilution series of the solution in TSB was achieved by resuspending 50 μL of the 8 mM solution from column 1 in column 2. This step was repeated until column 10. The respective concentration of Tween 80 and DMSO in column 1 is at 2.5%, which is two-fold diluted throughout the plate. 50 μL of the bacterial suspension was added to column 1-11. The microtiter plates were sealed with adhesive polyethylene film for sealing microplates (Diversified Biotech) and incubated for 48 h at 37° C. After incubation the supernatant is carefully removed and the well with the biofilm washed for one time with 100 μL 0.9% saline solution. 100 μL 0.1 M HCl was added and incubated for 1 h at room temperature to fix the biofilm. After incubation the HCl was removed and 100 μL crystal violet (0.1% v/v in water) was added and incubated for 30 min at room temperature. The unbound crystal violet was removed and the wells washed one time with 100 μL demineralized water. 100 μL 30% acetic acid was added and incubated for 1 h at 37° C. and 150 rpm. The solution was resuspended and transferred to a flat-bottom 96-well plate and the absorbance measured at 540 nm with the spectrophotometer. This assay was repeated two times in two independent experiments.

[2] = tested on: Staphylococcus epidermis ATCC 35984; experiment: MIC assay (planktonic growth inhibition, OD600); format: cell-based, S. epidermidis; settings: 24 h at 37° C.
Procedure: as §1
(§3) Frozen aliquots of Staphylococcus epidermis ATCC 35984 and Pseudomonas aeruginosa ATCC 27853 were used to inoculate a tryptic soy agar (TSA) plate and incubated overnight at 37° C. After incubation 3-5 well-isolated colonies with the same morphology were selected from the TSA plate and resuspended in 2 mL 0.9% saline solution with 3-6 glass beads and vortexed. The optical density at 600 nm (OD600) of the bacterial suspension was measured with a spectrophotometer (Evolution™ 201/220 UV-Visible Spectrophotometer, Thermo Fisher Scientific) and diluted to an OD600 of 0.0008, which resembles 10^6 CFU/mL.
(§4) The MIC assay was performed in a flat-bottom 96-microtiter plate. 50 μL of MHB-II was added into columns 2-11, and 100 μL to column 12 for sterility control. 100 μL of the 8 mM test compound solution (method 1) was added to column 1. A two-fold dilution series of the solution in MHB-II was achieved by resuspending 50 μL of the 8 mM solution from column 1 to column 2. This step was repeated until column 10. The respective concentration of Tween 80 and DMSO in column 1 was 2.5%, which is two-fold diluted throughout the plate. 50 μL of the bacterial suspension was added to column 1-11. The microtiter plates were sealed with adhesive polyethylene film for sealing microplates (Diversified Biotech) and incubated for 24 h at 37° C. After incubation the OD was measured at 600 nm with the Varioskan (Thermo Fisher Scientific). […] This assay was repeated three times in three independent experiments.

udder cleft wound = experiment: In vivo udder cleft dermatitis test: wound assessment after spray treatment; parameters: species or system cow; settings: for Conclusion (effect on udder cleft wound): over 60 days, all cows of the group; for inflammation of the udder cleft wound after treatment: immediately after the treatment, later infection reduced and wound healed
Procedure: An example of a biofilm-related disorder is Udder Cleft Dermatitis (UCD), which relates to a chronic wound. In this Example, di-alkyl thiosulfonates, dialkyl thiosulfinates and di-alkyl disulfides were tested for their effect on cows affected by UCD.
Experiments were performed to examine the effect of various sprays containing water (control), a test compound, or a reference compound (CTC spray, which contains chlorotetracycline hydrochloride, and was obtained from Dechra veterinary products).
0.35 mL of the spray was sprayed on an udder cleft wound per treatment. Treatments took place once a day at t=0, at t=3 days and t=6 days. In Table 6, the assessment qualifications that are used in Table 7, are explained.

[3] = tested on: Pseudomonas aeruginosa ATCC 27853 biofilm; experiment: MBEC assay (biofilm eradication, CFU log reduction); format: cell-based, P. aeruginosa; settings: 48 h grown biofilm, 20 h treatment, CFU log reduction vs untreated; for minimal effective concentration: Pseudomonas aeruginosa, ATCC27853, read-out: P. aeruginosa MBEC mM with log reduction ≥1
Procedure: as §1
(§5) Frozen aliquots of Staphylococcus epidermis ATCC 35984 and Pseudomonas aeruginosa ATCC 27853 were used to inoculate 20 mL of Tryptic Soy Broth (TSB) in a 100 mL Erlenmeyer flask at 37° C. and 150 rpm and incubated overnight (Infors). The OD600 of the overnight culture was measured with a spectrophotometer (Evolution™ 201/220 UV-Visible Spectrophotometer, Thermo Fisher Scientific) and diluted to an OD600 of 0.2, which resembles 10^8 CFU/mL. The cell suspension of OD600=0.2 was seeded into a U-bottom-shaped 96 well plates by pipetting 100 μL per well in column 1-11, column 12 was filled with 100 μL medium as sterility control. The 96 well plates were sealed with adhesive polyethylene film for sealing microplates and incubated for 48 h at 37° C. at static conditions. After the biofilm growth phase, 100 μL of treatment solutions (method 1) were added to the vials resulting in treatment concentrations of 1 mM, 0.5 mM, 0.25 mM and 0.125 mM and with the respective concentration of Tween 80 and DMSO each at 0.63%, 0.32%, 0.16% and 0.08%. The same concentration was applied to four different wells of the same bacterial strain, resulting in four replicates for each concentration and strain. The treatment was incubated for 20 h at 37° C. at static conditions. After the treatment the supernatant was carefully removed and the well with the biofilm washed carefully for one time with 200 μL 0.9% saline solution. 200 μL saline solution was added and the biofilm was resuspended thoroughly. When fully homogenized then 20 μL was used for the first dilution in 180 μL 0.9% saline solution, which was prepared in a second plate. This dilution was continued until dilution step 10E−5 and 100 μL of the 10E−4 and 10E−5 dilution plated on a TSA plate. The TSA plates were incubated at 37° C. for 24 h. The colonies on the plates were enumerated, the colony forming units per mL of the dispensed biofilm and averages thereof and the log reduction in comparison with the untreated sample from the same wells plate calculated. Reduction of colony forming units goes hand in hand with the thickness of the biofilm and thus with the number bacteria that are present in the biofilm. Therefore, a significant reduction of colony forming units in the biofilm was defined at the value of log reduction ≥1 or more. This assay was repeated two times in two independent experiments)

[4] = tested on: Pseudomonas aeruginosa ATCC 27853; experiment: MIC assay (planktonic growth inhibition, OD600); format: cell-based, P. aeruginosa; settings: 24 h at 37° C.
Procedure: as §1, §3, §4

[5] = tested on: Staphylococcus epidermis ATCC 35984 biofilm; experiment: MBEC assay (biofilm eradication, CFU log reduction); format: cell-based, S. epidermidis; settings: 48 h grown biofilm, 20 h treatment, CFU log reduction vs untreated; for minimal effective concentration: read-out: S. epidermidis MBEC mM with log reduction ≥1
Procedure: as §1, §5

[6] = tested on: Staphylococcus epidermis ATCC 35984 biofilm; experiment: MBIC assay (biofilm inhibition, crystal violet); format: cell-based, S. epidermidis; settings: 48 h incubation, absorbance 540 nm
Procedure: as §1, §2

[7] = tested on: cows with a SCC of more as 250.000 cells/ml; experiment: In vivo mastitis test: somatic cell count (SCC) in milk after a single oral tablet; parameters: species or system cow; settings: single oral tablet (10 g), 60 days, FIG. 1
Procedure: Experiments were performed to examine the effect of compounds on the cell count or somatic cell count (SCC) in milk.
Somatic cell counts (SCC) is related to the amount of pathogens that are in the quarter visible for the immune system. The cell count of each cow was measured with the milk production registration (MPR). This MPR is done periodically every 30-40 days at all farms. The Somatic Cell Count (SCC) is a main indicator of milk quality. The majority of somatic cells are leukocytes (white blood cells)—which become present in increasing numbers in milk usually as an immune response to a mastitis-causing pathogen—and a small number of epithelial cells, which are milk-producing cells shed from inside of the udder when an infection occurs.
The SCC data was extracted from milk production registrations (MPRs). MPRs are databases showing all details (e.g. SCC) of the produced milk per individual cow. MPRs of the selected farms were available periodically. SCC is quantified as the number of cells per ml of milk. In general terms: an individual cow with a value for SCC of 100,000 or less indicates an ‘uninfected’ cow and there were no significant production losses due to subclinical mastitis. A threshold SCC above 250,000 indicates infection and counts between 100,000 to 250,000 indicate a high risk of infection.
The experiments were performed on a farm with 90 cows. Examination was performed on cell count with the above described tablets during 60 days.
Cows with a SCC of more as 250.000 cells/ml before treatment were selected for administration of a single tablet.

[8] = minimal concentration reducing final OD600 by 50%, read-out: S. epidermidis MIC50
[9] = minimal concentration reducing final OD600 by 90%, read-out: S. epidermidis MIC90
[10] = Pseudomonas aeruginosa, ATCC27853, minimal concentration reducing final OD600 by 50%, read-out: P. aeruginosa MIC50
[11] = Pseudomonas aeruginosa, ATCC27853, minimal concentration reducing final OD600 by 90%, read-out: P. aeruginosa MIC90
[12] = minimal concentration reducing final OD600 by 50%
[13] = minimal concentration reducing final OD600 by 90%

IC50 [2, 8] [mM] | IC90 [2, 9] [mM] | IC50 [4, 10] [mM] | IC90 [4, 11] [mM] | Structure (SMILES) | P. aeruginosa MBIC90 [1] [mM] | Conclusion (effect on udder cleft wound) (udder cleft wound) | minimal effective concentration [3] [mM] | minimal effective concentration [5] [mM] | S. epidermidis MBIC90 [6] [mM] | P. aeruginosa MBEC mM with log reduction ≥1 [3] [mM] | S. epidermidis MBEC mM with log reduction ≥1 [5] [mM] | inflammation of the udder cleft wound after treatment (udder cleft wound) | other results
> 4 | > 4 | > 4 | > 4 | Cc1ccc(SSc2ccc(C)cc2)cc1 [Di-p-tolyl disulfide] | 4 | No effect | > 1 | > 1 | >4 |  |  |  | 
 |  |  |  | [O-][S+](Sc1ccccc1)c1ccccc1 (stereo not shown) [Di-phenyl thiosulfinate] | >4 | No effect |  |  | >4 | 2 | 2 |  | S. epidermidis MIC50 [2, 12]: 1000 µM; S. epidermidis MIC90 [2, 13]: 1000 µM; P. aeruginosa MIC50 [4, 12]: 1000 µM; P. aeruginosa MIC90 [4, 13]: 1000 µM
 |  |  |  | O=[SH](O)=S.c1ccc(-c2ccccc2)cc1 [Di-phenyl thiosulfonate, phenyl benzene thiosulfonate] |  | Positive effect |  |  |  | >4 | 2 | fast inflammation reduction | somatic cell count (SCC) of milk [7]: significantly decreased; MIC50 [2, 8]: 1000 µM; MIC90 [2, 9]: 2000 µM; MIC50 [4, 10]: 2000 µM; MIC90 [4, 11]: 2000 µM
> 4 | > 4 | > 4 | > 4 | CCCSSCCC [Di-n-propyl disulfide] | >4 | Positive effect | > 4 | > 4 | 4 |  |  | fast inflammation reduction | 
